Results on three compounds are retold here after ChEMBL document CHEMBL5325426, “Structure-based discovery of potent USP28 inhibitors derived from Vismodegib” (Eur J Med Chem, 2023).

Assay [1] concerns the target T1, Ubiquitin carboxyl-terminal hydrolase 8 (Homo sapiens) (UniProt P40818).
T1 sequence (whole entry): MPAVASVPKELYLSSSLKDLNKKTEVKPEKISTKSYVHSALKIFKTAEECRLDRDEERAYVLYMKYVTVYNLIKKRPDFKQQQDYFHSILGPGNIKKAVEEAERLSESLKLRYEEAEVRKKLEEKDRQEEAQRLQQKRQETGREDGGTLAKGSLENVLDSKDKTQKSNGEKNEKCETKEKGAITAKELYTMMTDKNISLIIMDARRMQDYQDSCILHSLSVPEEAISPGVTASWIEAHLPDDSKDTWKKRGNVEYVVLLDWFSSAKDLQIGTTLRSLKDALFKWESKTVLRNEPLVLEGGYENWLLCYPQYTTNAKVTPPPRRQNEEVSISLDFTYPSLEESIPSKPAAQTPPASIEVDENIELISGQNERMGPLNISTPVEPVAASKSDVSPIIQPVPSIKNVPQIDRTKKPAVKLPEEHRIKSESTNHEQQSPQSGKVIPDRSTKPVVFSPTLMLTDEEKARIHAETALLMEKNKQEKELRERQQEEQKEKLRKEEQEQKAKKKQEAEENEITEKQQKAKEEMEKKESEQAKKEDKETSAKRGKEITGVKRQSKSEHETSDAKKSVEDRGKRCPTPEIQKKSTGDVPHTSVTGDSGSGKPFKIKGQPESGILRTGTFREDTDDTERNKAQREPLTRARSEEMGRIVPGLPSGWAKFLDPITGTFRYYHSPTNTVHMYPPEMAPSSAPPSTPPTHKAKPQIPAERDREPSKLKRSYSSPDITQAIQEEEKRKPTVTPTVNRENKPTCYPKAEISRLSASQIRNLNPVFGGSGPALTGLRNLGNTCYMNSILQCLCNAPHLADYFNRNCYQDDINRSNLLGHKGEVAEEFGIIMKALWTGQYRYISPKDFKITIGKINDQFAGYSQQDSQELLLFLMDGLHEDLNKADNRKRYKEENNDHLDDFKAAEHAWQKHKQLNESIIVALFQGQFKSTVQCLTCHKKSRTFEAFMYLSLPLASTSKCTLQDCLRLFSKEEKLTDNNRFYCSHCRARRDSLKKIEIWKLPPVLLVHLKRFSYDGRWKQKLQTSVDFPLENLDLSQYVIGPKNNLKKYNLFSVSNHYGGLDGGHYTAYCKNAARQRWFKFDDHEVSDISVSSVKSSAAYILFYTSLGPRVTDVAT
The experiment in a line: Inhibition of USP8 (734 to 1110 residues) (unknown origin) expressed in Escherichia coli BL21 (DE3) using Ub-AMC as substrate at 5 uM by fluorescence based analysis.

For assay [2], the system named is HCT-116. In words: Inhibition of colony formation in human HCT-116 cells at 15 uM by crystal violet staining assay. It counts as functional, cell-based.
Assay [3] concerns HCT-116. The experiment in a line: Antiproliferative activity against human HCT-116 cells assessed as effect on Bcl-2 protein level at 30 to 100 uM incubated for 1 day by western blotting analysis. The following applies: dose 30-100 µM. It counts as functional, cell-based.
The target in assay [4] is T2, Ubiquitin carboxyl-terminal hydrolase 28 (Homo sapiens, UniProt Q96RU2).
T2 sequence (Q96RU2 whole entry): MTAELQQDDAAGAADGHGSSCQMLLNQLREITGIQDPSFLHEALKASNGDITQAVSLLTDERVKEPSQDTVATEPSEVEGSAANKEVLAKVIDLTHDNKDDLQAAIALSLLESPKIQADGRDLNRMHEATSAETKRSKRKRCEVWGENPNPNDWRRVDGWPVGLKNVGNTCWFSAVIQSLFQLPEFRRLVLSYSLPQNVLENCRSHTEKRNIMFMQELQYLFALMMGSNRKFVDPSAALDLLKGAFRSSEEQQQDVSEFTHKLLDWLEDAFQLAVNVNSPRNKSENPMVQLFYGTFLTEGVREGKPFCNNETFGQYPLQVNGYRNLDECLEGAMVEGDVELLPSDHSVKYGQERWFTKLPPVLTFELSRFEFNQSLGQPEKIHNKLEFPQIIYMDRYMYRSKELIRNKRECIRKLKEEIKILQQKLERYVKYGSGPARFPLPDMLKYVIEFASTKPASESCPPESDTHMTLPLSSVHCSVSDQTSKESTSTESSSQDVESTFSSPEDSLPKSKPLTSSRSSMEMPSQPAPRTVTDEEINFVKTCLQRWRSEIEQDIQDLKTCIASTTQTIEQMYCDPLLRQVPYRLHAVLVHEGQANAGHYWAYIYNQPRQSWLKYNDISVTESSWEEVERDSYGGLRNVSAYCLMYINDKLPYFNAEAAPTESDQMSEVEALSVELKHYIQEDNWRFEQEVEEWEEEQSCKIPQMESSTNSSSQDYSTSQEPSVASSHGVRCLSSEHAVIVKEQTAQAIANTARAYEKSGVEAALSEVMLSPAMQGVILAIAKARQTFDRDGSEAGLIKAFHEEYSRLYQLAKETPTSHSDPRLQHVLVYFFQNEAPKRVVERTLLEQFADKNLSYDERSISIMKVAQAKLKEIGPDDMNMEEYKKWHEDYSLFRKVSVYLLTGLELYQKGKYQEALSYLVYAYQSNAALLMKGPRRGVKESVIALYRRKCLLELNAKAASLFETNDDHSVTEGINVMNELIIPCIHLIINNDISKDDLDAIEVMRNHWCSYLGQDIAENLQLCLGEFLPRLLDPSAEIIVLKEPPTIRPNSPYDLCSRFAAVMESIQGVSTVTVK
In words: Inhibition of USP28 (149 to 703 residues) (unknown origin) expressed in Escherichia coli BL21 (DE3) using Ub-AMC as substrate by fluorescence based analysis.

Assay [5] concerns the target Ubiquitin carboxyl-terminal hydrolase 7 (Homo sapiens) (UniProt Q93009). The experiment in a line: Inhibition of USP7 (208 to 560 residues) (unknown origin) expressed in Escherichia coli BL21 (DE3) using Ub-AMC as substrate at 5 uM by fluorescence based analysis.
The test system of another assay is LS174T. The experiment in a line: Antiproliferative activity against human LS174T cells assessed as effect on Bcl-2 protein level at 20 to 60 uM incubated for 1 day by western blotting analysis. It is filed as functional, cell-based. The note with it: dose 20-60 µM.
Assay [6] concerns HCT-116. In words: Inhibition of colony formation in human HCT-116 cells at 17.5 uM by crystal violet staining assay. It counts as functional, cell-based.
In assay [7] the test system is HCT-116. The experiment in a line: Antiproliferative activity against human HCT-116 cells assessed as effect on Bcl-2 protein level at 30 to 80 uM incubated for 1 day by western blotting analysis. It counts as functional, cell-based. The following applies: dose 30-80 µM.

Structures are written as SMILES. pIC50: −log10 of the molar value. Activity calls are given as the source filed them. The calls are words filed in the database; no cut-off is given here.

Chain of Ubiquitin carboxyl-terminal hydrolase 7 (Homo sapiens) (Q93009 whole entry, looked up, the tested form may be a part): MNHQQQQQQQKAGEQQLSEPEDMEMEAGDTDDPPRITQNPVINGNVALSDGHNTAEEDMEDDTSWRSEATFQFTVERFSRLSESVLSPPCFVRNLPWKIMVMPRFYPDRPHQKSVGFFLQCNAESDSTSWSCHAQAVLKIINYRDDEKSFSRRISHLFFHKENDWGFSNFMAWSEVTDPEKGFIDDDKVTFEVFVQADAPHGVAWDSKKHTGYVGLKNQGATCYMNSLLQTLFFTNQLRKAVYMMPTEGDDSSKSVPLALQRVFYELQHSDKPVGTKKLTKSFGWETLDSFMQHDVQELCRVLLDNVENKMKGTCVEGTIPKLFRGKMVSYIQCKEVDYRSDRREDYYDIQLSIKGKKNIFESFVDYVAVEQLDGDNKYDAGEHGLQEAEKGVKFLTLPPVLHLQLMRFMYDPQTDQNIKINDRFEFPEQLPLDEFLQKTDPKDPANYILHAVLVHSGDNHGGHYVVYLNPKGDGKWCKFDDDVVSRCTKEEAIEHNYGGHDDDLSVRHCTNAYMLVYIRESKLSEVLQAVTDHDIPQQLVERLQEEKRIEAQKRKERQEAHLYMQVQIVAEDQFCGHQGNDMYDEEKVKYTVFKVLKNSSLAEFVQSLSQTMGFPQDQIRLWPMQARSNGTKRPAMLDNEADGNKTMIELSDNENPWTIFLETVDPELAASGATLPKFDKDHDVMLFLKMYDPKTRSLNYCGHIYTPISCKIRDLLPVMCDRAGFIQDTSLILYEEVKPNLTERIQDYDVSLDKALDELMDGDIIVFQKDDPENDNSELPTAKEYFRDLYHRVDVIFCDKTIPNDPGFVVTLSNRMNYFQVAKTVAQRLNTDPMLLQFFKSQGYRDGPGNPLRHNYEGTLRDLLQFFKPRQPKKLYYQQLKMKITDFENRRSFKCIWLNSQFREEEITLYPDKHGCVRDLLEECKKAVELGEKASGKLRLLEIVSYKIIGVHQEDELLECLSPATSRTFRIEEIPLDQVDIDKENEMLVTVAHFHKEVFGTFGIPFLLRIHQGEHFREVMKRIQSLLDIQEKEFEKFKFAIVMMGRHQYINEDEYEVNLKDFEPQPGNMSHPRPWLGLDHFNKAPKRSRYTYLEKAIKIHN

As to `CS(=O)(=O)c1ccc(C(=O)Nc2ccc(Cl)c(-c3ccc4c(c3)CCNC4)c2)c(Cl)c1`, the inhibition result (in assay [1]; with HCT-116 [2]; in assay [5]) was “Active” throughout. Besides, the outcome in the assay with HCT-116 [3] and with LS174T was inactive. The compound also had a pIC50 in assay [4] of 7.00.

As to `CS(=O)(=O)c1ccc(C(=O)Nc2ccc(Cl)c(-c3ccc(C4(N)CC4)cc3)c2)c(Cl)c1`, the inhibition entry (in assay [1]; with HCT-116 [6]; in assay [5]) was “Active” each time. For the same compound, the pIC50 in assay [4] is 6.52. Besides, the result in the assay on HCT-116 [7] and with LS174T was inactive.

Regarding `CS(=O)(=O)c1ccc(C(=O)Nc2ccc(Cl)c(-c3ccc4c(c3)CNC4)c2)c(Cl)c1`, the inhibition entry (in assay [1]; with HCT-116 [2]; in assay [5]) was “Active” in each case. The result with HCT-116 [3] and in the assay with LS174T was inactive. The same compound showed a pIC50 in assay [4] of 7.40.
